The values that follow come from patent US20250277213A1, “COMPOSITIONS AND METHODS RELATED TO MULTIPLE MYELOMA-ASSOCIATED LONG NONCODING RNAS” (Washington University, priority 2024, published 2025).

Entries after “also recorded” stand apart in the source; their conditions may differ.

Holding throughout (assay type): cell-based
Data set [1] has as its system LINC01432. Nature of the data set: mFISH of LINC01432 in U266B1 cells treated with high-dose melphalan. As for the experimental part: RNAScope was performed as previously described, with some modifications using RNAscope 2.5 HD Reagent Kit Red assay combined with Immunohistochemistry (Advanced Cell Diagnostics [ACD], Catalog #323180 and #322372) according to manufacturer's instructions. Briefly, bone marrow aspirates or isolated tumors were applied to slides were baked in a dry air oven for one hour at 60° C., deparaffinized (Xylene for five minutes twice, followed by 100% ethanol for two minutes twice), hydrogen peroxide was applied for 10 minutes at room temperature, and co-detection target retrieval was performed using Steamer (BELLA) for twenty minutes and PBS-T washing. Slides were then incubated overnight with CUGBP2 (CELF2) antibody (Protein Tech, Cat #12921-1-AP) in a HybEz Slide Rack with damp humidifying paper and incubated overnight at 4° C. The next day, slides were washed in PBS-T then post-primary fixation was performed by submerging slides in 10% NBF for 30 minutes at room temperature. […]
Analysis of mFISH and IHC images was performed by comparing expression of LINC01432 or CELF2 between different cell lines or tissues and simultaneously verifying their cellular localization or intensity of expression. We first visualized our target RNA molecules using an EVOS M5000 imaging system and quantified targets with QuPath Software v0.5.1 to obtain cell-count per region and number of spots per cell data. […]

Data set [2] relates to LINC01432 binding to CELF2. Nature of the data set: iCLIP RT-qPCR of CELF2 binding to LINC01432 in U266B1 cells treated with melphalan. The settings on record: high-dose melphalan for 48 hours, FIG. 16B. On the procedure:
Cells were seeded at a density of twenty million cells/150 mm dish. The next day, cells were washed with cold PBS and media volumes were adjusted to 10 ml/dish. Dishes were then uncovered and irradiated with 150 mJ/cm^2 of […] (254 nm) in a crosslinker device (Stratalinker). Cells were then harvested and centrifuged at 2000 RPM at 4° C. for 5 minutes. Cell pellets were resuspended in 1 ml of NP-40 lysis buffer (20 mM Tris-HCl at pH 7.5, 100 mM KCl, 5 mM MgCl2, and 0.5% NP-40) with 1 μl protease inhibitor and 1 mM DTT, incubated on ice for ten minutes, and then centrifuged at 10,000 RPM for 15 minutes at 4° C. Supernatants were collected, 1 U/μl RNase T1 was added, then cell lysates were incubated at 22° C. for 30 minutes. Protein G Beads were resuspended in 100 μls NT2 buffer (50 mM Tris-HCl at pH 7.5, 150 mM NaCl,1 mM MgCl2, 0.05% NP-40) with 5 μg of respective antibodies, then rotated for one hour at room temperature. Cell lysates were added to the beads and incubated for three hours at 4° C., the beads were washed with NT2 buffer, and then incubated with 20 units RNAse-free DNase I for 15 minutes at 37° C. in a thermomixer, shaking slowly. […] (141 μls NP-40 lysis buffer, 0.1% SDS, 0.5 mg/ml Proteinase K) was then added and incubated for 15 minutes at 55° C. in a thermomixer, shaking at maximum speed. […]
(In qPCR the cycle at which signal appears reflects the starting amount.)

In data set [3] the test system is LINC01432. Briefly: LINC01432 expression in U266B1 cells treated with standard drugs. The settings on record: FIG. 8B, 8C.
The next data set concerns MM cell lines. Nature of the data set: Apoptosis after LNA ASO-mediated CELF2 knockdown. The note with it: MM cell lines (U266B1 in FIG. 12B); vs control LNA ASO.
Data set [4] relates to RPMI 8226 cells. Briefly: Proliferation (alamarBlue, IC50 assay) of cells treated with LNA ASO and Melphalan. On the procedure: (§1) We used the ApoTox-Glo Triplex Assay (Promega, Madison, WI) to simultaneously measure viability, cytotoxicity, and apoptosis in the same sample. We seeded 20,000 cells/well of Control CRISPR/Cas9, LINC01432 knockdown CRISPR/Cas9, empty vector, LINC01432 overexpression, or wild-type RPMI 8226 cells in triplicate into a 96-well plate at 100 uls complete media per well. We began by first adding 20 ul of Viability/Cytoxicity reagent to all wells, and briefly mixing for ˜30 seconds. Plates were then placed in a 37° C. incubator for one hour. Next, we measured the intensity of fluorescence (relative fluorescence units) using 400Ex/505Em (viability) and 485Ex/520Em (Cytotoxicity) in Varioskan LUX microplate reader. To measure apoptosis, we next add 100 ul Caspase-Glo 3/7 reagent to the same wells and briefly mixed by orbital shaking ˜20 seconds, followed by incubation at room temp for 30 minutes. Luminescence (relative luminescence units) was then measured using Varioskan LUX microplate reader to detect caspase activation. A similar protocol was used to detect the proliferation of cells treated with Melphalan at increasing concentrations (Sigma Aldrich, St. Louis, MO, cat #M2011) using 10 uls Invitrogen alamarBlue HS Cell Viability Reagent in 90 μls of 25,000 cells with media (Waltham, MA, cat #A50100). Fluorescence was then measured using 560Ex/570Em in a microplate reader.
(Resazurin is reduced to fluorescent resorufin, in cell work by metabolically active cells.)

The subject of data set [5] is RPMI 8226 cells. On the procedure:
(§2) Locked nucleic acid GapmeR antisense oligonucleotides (LNA ASOs) targeting LINC01432 (Qiagen, cat #3653410) and CELF2 (Qiagen, cat #339511), and negative control LNA ASOs (Qiagen, cat #148759394), were designed using the Qiagen Antisense LNA GapmeR Custom Builder (https://www.qiagen.com), sequences are listed in Table 2. RPMI 8226 cells were seeded at a density of 500,000 cells/well in 6-well plates, transfected with respective ASOs at 100 nM concentration using Lipofectamine 2000, and incubated for 48-72 hours. Cells were harvested and target knockdown was validated via RT-qPCR.
as §1

The test system of data set [6] is LINC01432. Nature of the data set: RT-qPCR of LINC01432 expression after LNA ASO transfection. The settings on record: RPMI 8226 cells; 100 nM ASO, 48-72 hours; vs control LNA ASO; FIG. 5A. On the procedure:
as §2

In data set [7] the test system is RPMI 8226 cells. Nature of the data set: Annexin V and propidium iodide flow cytometry, LNA ASO followed by Melphalan. On the procedure:
We measured apoptosis by isolating cells and assessing via flow cytometry using BD Horizon V450 AnnexinV (BD Biosciences, Franklin Lakes, NJ). We seeded 500,000 cells/well in a 6-well plate for 24 hours. Cells were then harvested, and the usual protocol was followed, per manufactures instructions. Briefly, cells were washed twice with PBS, then incubated V450 AnnexinV and Propidium Iodide (ThermoFisher) for fifteen minutes at room temperature in the dark. Apoptosis and DNA content was assessed on a flow cytometer machine (Novios, Becton Dickinson) by the Flow Cytometry Core of Siteman Cancer Center, Washington University in St. Louis. We collected a minimum of 50,000 cells per sample in triplicate. FlowJo Version10 (Becton Dickinson) was used to analyze data.
For orientation: A flow cytometer gives signals particle by particle.

Turning to `N[C@@H](Cc1ccc(N(CCCl)CCCl)cc1)C(=O)O` [melphalan, Melphalan], the “LINC01432 expression by mFISH” value with LINC01432 [1] (high-dose melphalan for 24 hours, p=0.001) is on record as “High expression”; in the data set on LINC01432 [1] (high-dose melphalan for 48 hours, p=0.0012) it was “High expression”. The “decrease in binding enrichment compared to control cells, Tiling Primer 1” value in data set [2] is on record as over 2 Fold Change. In data set [2], the “decrease in binding enrichment compared to control cells, Tiling Primer 5” value is reported as over 2 Fold Change. Moreover, the LINC01432 expression entry in the data set with LINC01432 [3] is listed as “increases LINC01432 expression”.
For the compound “CELF2 LNA ASO: LNA GapmeR antisense oligonucleotide targeting CELF2, GATGAACTCGTTACGC (SEQ_ID_NO: 33) (antisense GAUGAACUCGUUACGC; LNA gapmer from Qiagen, LNA pattern not given here)”, in the data set on MM cell lines, the apoptosis result is reported as “increased apoptosis”.
Take “LINC01432-targeted LNA ASO: LNA GapmeR antisense oligonucleotide targeting LINC01432, TGGAGATTTTGCCATT (SEQ_ID_NO: 31) (antisense UGGAGAUUUUGCCAUU; LNA gapmer, pattern not given here)”: the sensitivity to melphalan result in the data set with RPMI 8226 cells [4] (MM cell lines in vitro, with high-dose melphalan) is listed as “induce sensitivity to melphalan; also recorded: enhanced sensitivity to melphalan”. Also, the proliferation result in the data set with RPMI 8226 cells [4] (RPMI 8226 cells, LNA ASO plus Melphalan, vs control LNA ASO, FIG. 5D) is “decreased proliferation”. The cytotoxicity entry with RPMI 8226 cells [5] is on record as “significant decreases”. In addition, the viability entry with RPMI 8226 cells [5] (RPMI 8226 cells, vs control LNA ASO, p=0.001, FIG. 5B) is listed as “significant decreases”. In the data set with RPMI 8226 cells [5] (RPMI 8226 cells, vs control LNA ASO, p=0.017, FIG. 5B), the apoptosis entry was “significant increase”. The LINC01432 expression entry with LINC01432 [6] is recorded as “confirmed knockdown of LINC01432 expression”. Moreover, the “apoptosis on co-treatment with melphalan” value with RPMI 8226 cells [7] (MM cell lines in vitro, co-treatment with high-dose melphalan) was “increased apoptosis”. In addition, in the data set on RPMI 8226 cells [7] (RPMI 8226 cells, LNA ASO followed by 24 hours of 30 μM Melphalan, vs control LNA ASO, FIG. 5C), the “proportion of cells in early apoptosis and necrosis” value is on record as “increased”.
